# Measured values: publication PMC9329436, “Optimization of the 4-anilinoquin(az)oline scaffold as epidermal growth factor receptor (EGFR) inhibitors for chordoma utilizing a toxicology profiling assay platform” (Scientific Reports, 2022)
# Columns and labels:
# U-CH1 chordoma cell line = assay: Cell viability assay (alamarBlue, 72 h), U-CH1; format: cell-based, human; settings: n = 4, 72 h
# Method: (§1) Chordoma cell lines were cultured as described previously[10],[12],[33],[34]. Briefly, U-CH1 and U-CH2 cell lines were cultured in 4:1 IMDM:RPMI medium supplemented with 10% fetal bovine serum (FBS) and 1% penicillin/streptomycin in gel-coated flasks. […] CH22, UM-Chor1, U-CH12, and U-CH7 cell lines were cultured in RPMI medium supplemented with 10% FBS and 1% penicillin/streptomycin. The cell lines all undergo regular mycoplasma screening.
# (§2) Cells were seeded in 384 well plates and were treated with test compound in quadruplicate 24 h after plating. Cell viability was assessed at 72 h using alamarBlue (ThermoFisher, USA). […] IC50 values were determined by four-parameter nonlinear regression analyses using GraphPad Prism™ version 8 software (San Diego, CA).
# U-CH2 chordoma cell line = assay: Cell viability assay (alamarBlue, 72 h), U-CH2; format: cell-based, human; settings: n = 4, 72 h
# Method: as §1, §2
# HL60 cells = assay: AsedaSciences SYSTEMETRIC Cell Health Screen (flow cytometry toxicity profiling); settings: for CC: Cell Cycle score / CM: Cell morphology score / CMI: Cell membrane integrity score / GSH: Glutathione score / MMP: Mitochondrial membrane depolarization score / NMI1: Nuclear membrane integrity 1 score / NMI2: Nuclear membrane integrity 2 score / ROS: Reactive superoxide species score / CHI: Cell Health Index: HL60, 4 h, 5 nM–100 µM; for CC: Cell Cycle score / CM: Cell morphology score / CMI: Cell membrane integrity score / GSH: Glutathione score / MMP: Mitochondrial membrane depolarization score / NMI1: Nuclear membrane integrity 1 score / NMI2: Nuclear membrane integrity 2 score / ROS: Reactive superoxide species score: probability 0–1, n = 2; for CHI: Cell Health Index: probability (0–1) of high-risk class, n = 2; for Cell Health Toxcity Profile CC (DyeCycle Violet) / Cell Health Toxcity Profile CM (Cell morphology) / Cell Health Toxcity Profile CMI (Cell membrane integrity) / Cell Health Toxcity Profile GSH (Glutathione) / Cell Health Toxcity Profile MMP (Mitochondrial membrane depolarization) / Cell Health Toxcity Profile NMI1 (Nuclear membrane integrity 1) / Cell Health Toxcity Profile NMI2 (Nuclear membrane integrity 2) / Cell Health Toxcity Profile ROS (Reactive superoxide species) / Cell Health Toxcity Profile CHI: SYSTEMETRIC Cell Health Screen, assay n=2; for Cell Health Toxcity Profile CHI: classifier output
# Procedure, shortened: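 HL60 cells (100,000 per well) exposed 4 h at 37 °C, 5% CO2 to 10-step 3× dilutions (5 nM–100 µM), in duplicate. Cells then stained with mitochondrial and cell-stress reporter dyes and read by ungated flow cytometry over twelve parameters. Cell Health Index and eight endpoint scores come from an ML classifier trained on 300 high/low-risk compounds.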
smiles,measurement,setting,value
C#Cc1cccc(Nc2ncnc3ccc(C#N)cc23)c1 [Compound 18],IC50,U-CH1 chordoma cell line,74 µM
same,IC50,U-CH2 chordoma cell line,> 100 µM
same,CC: Cell Cycle score,HL60 cells,0.27
same,CM: Cell morphology score,HL60 cells,0.0026
same,CMI: Cell membrane integrity score,HL60 cells,0.0079
same,GSH: Glutathione score,HL60 cells,0.023
same,MMP: Mitochondrial membrane depolarization score,HL60 cells,0.11
same,NMI1: Nuclear membrane integrity 1 score,HL60 cells,0.33
same,NMI2: Nuclear membrane integrity 2 score,HL60 cells,0.094
same,ROS: Reactive superoxide species score,HL60 cells,0.042
same,CHI: Cell Health Index,HL60 cells,0.18
C#Cc1cccc(Nc2c(C#N)cnc3ccc(Cl)cc23)c1 [Compound 26],IC50,U-CH1 chordoma cell line,14 µM
same,IC50,U-CH2 chordoma cell line,40 µM
same,Cell Health Toxcity Profile CC (DyeCycle Violet),HL60 cells,0.93
same,Cell Health Toxcity Profile CM (Cell morphology),HL60 cells,1.00
same,Cell Health Toxcity Profile CMI (Cell membrane integrity),HL60 cells,1.00
same,Cell Health Toxcity Profile GSH (Glutathione),HL60 cells,0.99
same,Cell Health Toxcity Profile MMP (Mitochondrial membrane depolarization),HL60 cells,0.99
same,Cell Health Toxcity Profile NMI1 (Nuclear membrane integrity 1),HL60 cells,0.98
same,Cell Health Toxcity Profile NMI2 (Nuclear membrane integrity 2),HL60 cells,0.97
same,Cell Health Toxcity Profile ROS (Reactive superoxide species),HL60 cells,1.00
same,Cell Health Toxcity Profile CHI,HL60 cells,0.83
C#Cc1cccc(Nc2c(C#N)cnc3cc(OC)ccc23)c1 [Compound 33],IC50,U-CH1 chordoma cell line,4.1 µM
same,IC50,U-CH2 chordoma cell line,40 µM
same,Cell Health Toxcity Profile CC (DyeCycle Violet),HL60 cells,0.81
same,Cell Health Toxcity Profile CM (Cell morphology),HL60 cells,0.97
same,Cell Health Toxcity Profile CMI (Cell membrane integrity),HL60 cells,0.90
same,Cell Health Toxcity Profile GSH (Glutathione),HL60 cells,0.78
same,Cell Health Toxcity Profile MMP (Mitochondrial membrane depolarization),HL60 cells,0.22
same,Cell Health Toxcity Profile NMI1 (Nuclear membrane integrity 1),HL60 cells,0.20
same,Cell Health Toxcity Profile NMI2 (Nuclear membrane integrity 2),HL60 cells,0.16
same,Cell Health Toxcity Profile ROS (Reactive superoxide species),HL60 cells,0.68
same,Cell Health Toxcity Profile CHI,HL60 cells,0.44
C#Cc1cccc(Nc2ncnc3cc(Br)ccc23)c1 [Compound 14],IC50,U-CH1 chordoma cell line,54 µM
same,IC50,U-CH2 chordoma cell line,> 100 µM
same,CC: Cell Cycle score,HL60 cells,0.74
same,CM: Cell morphology score,HL60 cells,0.024
same,CMI: Cell membrane integrity score,HL60 cells,0.41
same,GSH: Glutathione score,HL60 cells,0.010
same,MMP: Mitochondrial membrane depolarization score,HL60 cells,0.17
same,NMI1: Nuclear membrane integrity 1 score,HL60 cells,0.033
same,NMI2: Nuclear membrane integrity 2 score,HL60 cells,0.3
same,ROS: Reactive superoxide species score,HL60 cells,0.86
same,CHI: Cell Health Index,HL60 cells,0.33
C#Cc1cccc(Nc2ncnc3ccc(Cl)cc23)c1 [Compound 7],IC50,U-CH1 chordoma cell line,25 µM
same,IC50,U-CH2 chordoma cell line,> 100 µM
same,CC: Cell Cycle score,HL60 cells,0.10
same,CM: Cell morphology score,HL60 cells,0.0047
same,CMI: Cell membrane integrity score,HL60 cells,0.030
same,GSH: Glutathione score,HL60 cells,0.011
same,MMP: Mitochondrial membrane depolarization score,HL60 cells,0.015
same,NMI1: Nuclear membrane integrity 1 score,HL60 cells,0.13
same,NMI2: Nuclear membrane integrity 2 score,HL60 cells,0.053
same,ROS: Reactive superoxide species score,HL60 cells,0.20
same,CHI: Cell Health Index,HL60 cells,0.16
C#Cc1cccc(Nc2ncnc3ccc(OC)cc23)c1 [Compound 2],IC50,U-CH1 chordoma cell line,1.4 µM
same,IC50,U-CH2 chordoma cell line,47 µM
same,CC: Cell Cycle score,HL60 cells,0.38
same,CM: Cell morphology score,HL60 cells,0.24
same,CMI: Cell membrane integrity score,HL60 cells,0.62
same,GSH: Glutathione score,HL60 cells,0.038
same,MMP: Mitochondrial membrane depolarization score,HL60 cells,0.019
same,NMI1: Nuclear membrane integrity 1 score,HL60 cells,0.42
same,NMI2: Nuclear membrane integrity 2 score,HL60 cells,0.068
same,ROS: Reactive superoxide species score,HL60 cells,0.17
same,CHI: Cell Health Index,HL60 cells,0.31
C#Cc1cccc(Nc2c(C#N)cnc3ccc(S(C)(=O)=O)cc23)c1 [Compound 29],IC50,U-CH1 chordoma cell line,92 µM
same,IC50,U-CH2 chordoma cell line,52 µM
same,Cell Health Toxcity Profile CC (DyeCycle Violet),HL60 cells,0.071
same,Cell Health Toxcity Profile CM (Cell morphology),HL60 cells,0.003
same,Cell Health Toxcity Profile CMI (Cell membrane integrity),HL60 cells,0.037
same,Cell Health Toxcity Profile GSH (Glutathione),HL60 cells,0.039
same,Cell Health Toxcity Profile MMP (Mitochondrial membrane depolarization),HL60 cells,0.021
same,Cell Health Toxcity Profile NMI1 (Nuclear membrane integrity 1),HL60 cells,0.18
same,Cell Health Toxcity Profile NMI2 (Nuclear membrane integrity 2),HL60 cells,0.009
same,Cell Health Toxcity Profile ROS (Reactive superoxide species),HL60 cells,0.046
same,Cell Health Toxcity Profile CHI,HL60 cells,0.16
C#Cc1cccc(Nc2c(C#N)cnc3ccccc23)c1 [Compound 24],IC50,U-CH1 chordoma cell line,34 µM
same,IC50,U-CH2 chordoma cell line,> 100 µM
same,Cell Health Toxcity Profile CC (DyeCycle Violet),HL60 cells,0.76
same,Cell Health Toxcity Profile CM (Cell morphology),HL60 cells,0.99
same,Cell Health Toxcity Profile CMI (Cell membrane integrity),HL60 cells,1.00
same,Cell Health Toxcity Profile GSH (Glutathione),HL60 cells,0.98
same,Cell Health Toxcity Profile MMP (Mitochondrial membrane depolarization),HL60 cells,0.97
same,Cell Health Toxcity Profile NMI1 (Nuclear membrane integrity 1),HL60 cells,0.85
same,Cell Health Toxcity Profile NMI2 (Nuclear membrane integrity 2),HL60 cells,0.81
same,Cell Health Toxcity Profile ROS (Reactive superoxide species),HL60 cells,0.98
same,Cell Health Toxcity Profile CHI,HL60 cells,0.70
C#Cc1cccc(Nc2ncnc3ccc(S(C)(=O)=O)cc23)c1 [Compound 19],IC50,U-CH1 chordoma cell line,45 µM
same,IC50,U-CH2 chordoma cell line,52 µM
same,CC: Cell Cycle score,HL60 cells,0.33
same,CM: Cell morphology score,HL60 cells,0.0013
same,CMI: Cell membrane integrity score,HL60 cells,0.0057
same,GSH: Glutathione score,HL60 cells,0.044
same,MMP: Mitochondrial membrane depolarization score,HL60 cells,0.21
same,NMI1: Nuclear membrane integrity 1 score,HL60 cells,0.36
same,NMI2: Nuclear membrane integrity 2 score,HL60 cells,0.089
same,ROS: Reactive superoxide species score,HL60 cells,0.055
same,CHI: Cell Health Index,HL60 cells,0.22
C#Cc1cccc(Nc2ncnc3cc(F)ccc23)c1 [Compound 12],IC50,U-CH1 chordoma cell line,41 µM
same,IC50,U-CH2 chordoma cell line,> 100 µM
same,CC: Cell Cycle score,HL60 cells,0.59
same,CM: Cell morphology score,HL60 cells,0.058
same,CMI: Cell membrane integrity score,HL60 cells,0.045
same,GSH: Glutathione score,HL60 cells,0.004
same,MMP: Mitochondrial membrane depolarization score,HL60 cells,0.74
same,NMI1: Nuclear membrane integrity 1 score,HL60 cells,0.21
same,NMI2: Nuclear membrane integrity 2 score,HL60 cells,0.19
same,ROS: Reactive superoxide species score,HL60 cells,0.77
same,CHI: Cell Health Index,HL60 cells,0.40
C#Cc1cccc(Nc2ncnc3ccccc23)c1 [Compound 3],IC50,U-CH1 chordoma cell line,35 µM
same,IC50,U-CH2 chordoma cell line,52 µM
same,CC: Cell Cycle score,HL60 cells,0.86
same,CM: Cell morphology score,HL60 cells,0.96
same,CMI: Cell membrane integrity score,HL60 cells,0.99
same,GSH: Glutathione score,HL60 cells,0.98
same,MMP: Mitochondrial membrane depolarization score,HL60 cells,1.00
same,NMI1: Nuclear membrane integrity 1 score,HL60 cells,0.53
same,NMI2: Nuclear membrane integrity 2 score,HL60 cells,0.76
same,ROS: Reactive superoxide species score,HL60 cells,0.98
same,CHI: Cell Health Index,HL60 cells,0.74
C#Cc1cccc(Nc2ncnc3ccc(Br)cc23)c1 [Compound 8],IC50,U-CH1 chordoma cell line,16 µM
same,IC50,U-CH2 chordoma cell line,> 100 µM
same,CC: Cell Cycle score,HL60 cells,0.087
same,CM: Cell morphology score,HL60 cells,0.0037
same,CMI: Cell membrane integrity score,HL60 cells,0.0024
same,GSH: Glutathione score,HL60 cells,0.05
same,MMP: Mitochondrial membrane depolarization score,HL60 cells,0.11
same,NMI1: Nuclear membrane integrity 1 score,HL60 cells,0.13
same,NMI2: Nuclear membrane integrity 2 score,HL60 cells,0.020
same,ROS: Reactive superoxide species score,HL60 cells,0.083
same,CHI: Cell Health Index,HL60 cells,0.19
C#Cc1cccc(Nc2ncnc3cc4c(cc23)OCO4)c1 [Compound 20],IC50,U-CH1 chordoma cell line,22 µM
same,IC50,U-CH2 chordoma cell line,> 100 µM
same,CC: Cell Cycle score,HL60 cells,0.13
same,CM: Cell morphology score,HL60 cells,0.0019
same,CMI: Cell membrane integrity score,HL60 cells,0.0038
same,GSH: Glutathione score,HL60 cells,0.087
same,MMP: Mitochondrial membrane depolarization score,HL60 cells,0.016
same,NMI1: Nuclear membrane integrity 1 score,HL60 cells,0.72
same,NMI2: Nuclear membrane integrity 2 score,HL60 cells,0.0045
same,ROS: Reactive superoxide species score,HL60 cells,0.027
same,CHI: Cell Health Index,HL60 cells,0.18
